Measured values taken from article PMC8533485 (Biomedicines, 2021).
Read-outs that look alike come from different tables or passages of the source.

Assays:
MSSA = experiment: Vancomycin MIC of patient isolates by ETEST; assay type: cell-based, Staphylococcus aureus; conditions: isolates of individual patients
MRSA = experiment: Vancomycin MIC of patient isolates by ETEST; assay type: cell-based, Staphylococcus aureus; conditions: isolates of individual patients
[1] = in vivo
[2] = test system: staphylococci and streptococci; conditions: in vivo
Protocol: (§1) T > MIC was calculated based on the terminal t1/2 for each patient as a possible marker of the long-term prophylactic effect.

[3] = test system: plasma proteins (mainly albumin); conditions: cited from earlier work
Source text: Currently, off-label use at high dosages for osteoarticular infections deserves attention. […] AUC0-1w/MIC and, partic ...

[4] = ref [6],[7],[8]; cited from earlier work
clinical = conditions: human, in vivo, iv
[5] = test system: plasma proteins (mainly albumin); conditions: cited from earlier work; remark: listed apart in the source
[6] = test system: staphylococci and streptococci; experiment: PK/PD evaluation: observed PK versus EUCAST breakpoint MIC, adjusted by 93% protein binding; conditions: MIC 0.125 mg/L
Protocol: as §1

| SMILES | MIC for Vancom. (MSSA) | MIC for Vancom. (MRSA) | t1/2 reached in multiphasic profile [1] | AUC0-2w/MIC adjusted by 93% protein binding, all patients ([2]; human) | AUC0-2w/MIC relative to previously suggested cut-off of 1000 (for staphylococci) [2] | T > MIC in all patients [2] | binding to plasma proteins [3] | half-life (t1/2) [4] | half-life (clinical) | half-life (clinical; 1500 mg) | Cmax (clinical; 1500 mg, C max) | binding to plasma proteins [5] | median AUC0-2w/MIC ratio ([6]; dual dose regimen) | median AUC0-2w/MIC ratio ([6]; single dose regimen) |
| --- | --- | --- | --- | --- | --- | --- | --- | --- | --- | --- | --- | --- | --- | --- |
| CN[C@H](CC(C)C)C(=O)N[C@H]1C(=O)N[C@@H](CC(N)=O)C(=O)N[C@H]2C(=O)N[C@H]3C(=O)N[C@H](C(=O)N[C@H](C(=O)O)c4cc(O)cc(O)c4-c4cc3ccc4O)[C@H](O)c3ccc(c(Cl)c3)Oc3cc2cc(c3O[C@@H]2O[C@H](CO)[C@@H](O)[C@H](O)[C@H]2O[C@H]2C[C@](C)(N)[C@H](O)[C@H](C)O2)Oc2ccc(cc2Cl)[C@H]1O [Vancomycin, vancomycin] | ≤0.5 µg/mL | 1 µg/mL | – | – | – | – | – | – | – | – | – | – | – | – |
| CN[C@H]1C(=O)N[C@@H]2Cc3ccc(cc3)Oc3cc4cc(c3O[C@@H]3O[C@H](C(=O)O)[C@@H](O)[C@H](O)[C@H]3NC(=O)CCCCCCCCC(C)C)Oc3ccc(cc3Cl)[C@@H](O)[C@@H]3NC(=O)[C@H](NC(=O)[C@@H]4NC(=O)[C@@H](NC2=O)c2cc(cc(O)c2Cl)Oc2cc1ccc2O)c1ccc(O)c(c1)-c1c(O[C@H]2O[C@H](CO)[C@@H](O)[C@H](O)[C@@H]2O)cc(O)cc1[C@@H](C(=O)NCCCN(C)C)NC3=O [DBV, Dalbavancin] | – | – | higher than 500 h | higher than 17,000 | at least 8 folds | higher than 6 weeks | 93% | around 9 days | 26.1 days | 21.9 days | 390 µg/mL | ~98% | 31,366 | 20,590 |
